From PubChem BioAssay (NCI) come the findings set out here.

Among the test systems are MDA-N; KM20L2 colon; DMS 273 small cell lung; SNB-78 CNS; LXFL 529 NSCLC; HOP-18 NSCLC; M19-MEL melanoma; RXF-631 renal; XF 498 CNS; SN12K1 renal; P388 leukemia.
Common to all, as to experiment: NCI tumour cell line growth inhibition, 48 h

“And” between values parts separate entries of the source, which are not always exact repeats. Equal values may be shown once.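 How tested: cells in 96-well plates exposed to compound for 48 hours at five concentrations. GI50 is the concentration that inhibits growth by half. TGI denotes the concentration required for complete inhibition of growth.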

For `CCC(C)(CC(C)(C)C(=O)NCC(=O)NC(Cc1ccccc1)C(=O)NC(Cc1ccccc1)C(=O)NCC(=O)NC1CC(OC2CC(O)(C(=O)CO)Cc3c(O)c4c(c(O)c32)C(=O)c2c(OC)cccc2C4=O)OC(C)C1O)C(=O)NCC(C)O` (stereo not drawn), in the experiment with MDA-N, the GI50 was 120 mg/L and the TGI is above 150 mg/L.

With `Cc1cc(=O)n(-c2ccccc2C)c(C)n1`, the TGI in the experiment with KM20L2 colon, in the experiment with DMS 273 small cell lung, with SNB-78 CNS, in the experiment on LXFL 529 NSCLC, with HOP-18 NSCLC and in the experiment with M19-MEL melanoma was above 100 µM throughout. In the experiment with RXF-631 renal, the TGI was above 100 µM.

For the compound `Oc1c(C(Nc2cccc3cccnc23)c2ccccc2)ccc2cccnc12` (stereo not drawn), the TGI is above 100 µM in the experiment on KM20L2 colon; above 100 µM in the experiment on DMS 273 small cell lung; above 100 µM in the experiment on LXFL 529 NSCLC; 93.2 µM in the experiment with HOP-18 NSCLC; above 100 µM with M19-MEL melanoma.

For `COc1ccc(Br)c(N/N=C2\CCCNC2=O)c1`, the TGI in the experiment with KM20L2 colon, in the experiment with DMS 273 small cell lung, with SNB-78 CNS, with LXFL 529 NSCLC, with XF 498 CNS and in the experiment on HOP-18 NSCLC was above 100 µM each time. Also, the TGI in the experiment on M19-MEL melanoma and in the experiment with RXF-631 renal was above 100 µM in each case.

For `COc1cc2c(c(OC)c1OC)-c1ccc(SC)c(=O)cc1C(CO)C2` (stereo not drawn), the GI50 with KM20L2 colon, in the experiment with LXFL 529 NSCLC and in the experiment with M19-MEL melanoma was below 0.01 µM each time. The TGI was above 100 µM with LXFL 529 NSCLC; 0.605 µM in the experiment with XF 498 CNS; above 100 µM in the experiment on HOP-18 NSCLC; above 100 µM in the experiment with M19-MEL melanoma; above 100 µM with RXF-631 renal.

On to `Cc1ccc(Nc2n[nH]c(=S)s2)cc1C`, for which the TGI with MDA-N was above 100 µM.

Turning to `O=[N+]([O-])O.[Cu+2].[NH-]CC[NH-].[NH-]CC[NH-]`, in the experiment with MDA-N, the GI50 was above 10 µM and the TGI is above 10 µM.

For `Cc1ccc2nc(NC(=O)C(=O)C(C#N)c3nc4ccccc4s3)sc2c1` (stereo not drawn), the TGI with KM20L2 colon is above 100 µM; in the experiment with DMS 273 small cell lung, above 100 µM; in the experiment on SNB-78 CNS, above 100 µM; in the experiment on LXFL 529 NSCLC, above 100 µM; in the experiment on XF 498 CNS it was 63.9 µM; in the experiment with HOP-18 NSCLC, above 100 µM. The TGI in the experiment with M19-MEL melanoma and in the experiment on RXF-631 renal was above 100 µM each time.

Regarding `CC(C)C1CC[C@@H](C)C[C@@]1(O)CC(N)=O` (stereo partly drawn), the TGI in the experiment on KM20L2 colon was above 100 µM; in the experiment on DMS 273 small cell lung it was above 100 µM; with SNB-78 CNS it was above 100 µM; with LXFL 529 NSCLC it was above 100 µM; in the experiment with XF 498 CNS it was 0.856 µM; in the experiment with HOP-18 NSCLC it was above 100 µM. Moreover, the TGI with M19-MEL melanoma and in the experiment with RXF-631 renal was above 100 µM throughout.

On to `O=C(O)CNC(=O)c1ccc(-c2ccccc2)cc1`, for which, in the experiment with MDA-N, the TGI is above 100 µM.

The compound `CCC1C2Cc3ccc(O)cc3C1(CC)CCN2C` (stereo not drawn) returned a TGI in the experiment on MDA-N above 100 µM.

Turning to `O=C([CH-]C(=O)c1ccccc1)c1ccccc1.O=C([CH-]C(=O)c1ccccc1)c1ccccc1.[La+3].[OH-].[OH3+]`, in the experiment with KM20L2 colon, the GI50 was 22.4 µM and the TGI is 68.7 µM.

In the case of `CC1CCC(NC(=O)N(CCCl)N=O)CC1` (stereo not drawn), the TGI with SN12K1 renal is 67 µM; in the experiment with KM20L2 colon, 120 µM; in the experiment on DMS 273 small cell lung it was 82.3 µM and 74 µM; in the experiment on SNB-78 CNS it was 88.7 µM and 110 µM; with MDA-N it was 90.1 µM; in the experiment on LXFL 529 NSCLC, 28.7 µM. In addition, the TGI in the experiment on P388 leukemia was 55.8 µM; with XF 498 CNS it was 43.5 µM and 81.2 µM; with HOP-18 NSCLC, 62.8 µM; in the experiment with M19-MEL melanoma, 98 µM. For the same compound, the GI50 in the experiment with KM20L2 colon is 44.7 µM; in the experiment on DMS 273 small cell lung, 26.6 µM; with SNB-78 CNS, 20.1 µM; in the experiment with XF 498 CNS it was 16.4 µM; in the experiment on M19-MEL melanoma, 53.1 µM.

`CCC[CH2][Sn]1([CH2]CCC)[O]C(=O)c2cccnc2[O]1`: the GI50 in the experiment on KM20L2 colon was 3.96 µM; in the experiment with DMS 273 small cell lung, 2.37 µM; in the experiment on SNB-78 CNS, 2.07 µM; in the experiment on LXFL 529 NSCLC, 0.849 µM; in the experiment on XF 498 CNS, 1.38 µM; with M19-MEL melanoma it was 4.26 µM. The GI50 in the experiment on RXF-631 renal was 1.43 µM. The TGI in the experiment on KM20L2 colon came out at 11.9 µM; in the experiment on DMS 273 small cell lung, 11.3 µM; in the experiment on SNB-78 CNS, 7.73 µM; in the experiment on LXFL 529 NSCLC, 2.22 µM; with XF 498 CNS it was 2.92 µM; with M19-MEL melanoma, 15.3 µM. The compound also returned a TGI in the experiment on RXF-631 renal of 2.73 µM.

Take `COC1CC(OS(=O)(=O)c2ccc([N+](=O)[O-])cc2)C(OC(=O)c2ccccc2)C(C)O1` (stereo not drawn): the TGI in the experiment with KM20L2 colon, in the experiment with DMS 273 small cell lung, in the experiment with SNB-78 CNS, in the experiment with LXFL 529 NSCLC, with XF 498 CNS and with HOP-18 NSCLC was above 100 µM in each case. For the same compound, the TGI in the experiment with M19-MEL melanoma and with RXF-631 renal was above 100 µM in each case.

`CCOc1ccccc1N1C(=O)C(=O)C(c2nc3ccccc3o2)C(=O)C1=O`: the TGI in the experiment with KM20L2 colon, with DMS 273 small cell lung, in the experiment with SNB-78 CNS, with LXFL 529 NSCLC, with HOP-18 NSCLC and with M19-MEL melanoma was above 100 µM in each case. Also, the TGI in the experiment on RXF-631 renal is above 100 µM.

For `CCS(CC)(CC)CC1CCCC2=CCC(P(=O)(c3ccccc3)c3ccccc3)CC21` (stereo not drawn), the TGI came out at 25.2 µM with KM20L2 colon; 26.4 µM with DMS 273 small cell lung; 37.1 µM in the experiment on SNB-78 CNS; 22.4 µM in the experiment with LXFL 529 NSCLC; 17.4 µM in the experiment with XF 498 CNS; 40.3 µM with HOP-18 NSCLC. In addition, the TGI was found to be 36.5 µM in the experiment with M19-MEL melanoma and 31.5 µM with RXF-631 renal.

Take `CC(=O)OCC1OC(n2cnc(C(N)=S)c2N)C(OC(C)=O)C1OC(C)=O` (stereo not drawn): the TGI in the experiment with MDA-N is above 100 µM.

Take `COc1ccc2n[se]nc2c1`: the TGI with KM20L2 colon, in the experiment on DMS 273 small cell lung, with SNB-78 CNS, in the experiment on LXFL 529 NSCLC, with XF 498 CNS and in the experiment on RXF-631 renal was above 100 µM throughout.

Regarding `Cn1cc(C(=O)NCCC(=N)N)cc1NC(=O)C1=[N+](C)C=C(NC(=O)c2cccc(C(=O)NC3=CC(C(=O)Nc4cc(C(=O)NCCC(=N)N)cn4C)=[N+](C)C3)c2)C1`, the TGI with KM20L2 colon, in the experiment on DMS 273 small cell lung, in the experiment on LXFL 529 NSCLC, with XF 498 CNS, with HOP-18 NSCLC and in the experiment on M19-MEL melanoma was above 100 µM throughout.
